Results published in patent US4732916A, “Novel guanidinomethylbenzoic acid derivatives” (Kabushiki Kaisha Med-Creat, priority 1985, dated 1988).

Legend:
Type in all cases: in vivo
stress induced ulcer = experiment: Test Method 1: Effect on Stress Induced Ulcer; settings: Rattus norvegicus; SD male rats, oral, 15 minutes before restraint and water immersion (24° C., 18 hours); from doses-ulcer inhibition rates curve
Protocol: 1. Test Procedures The method of Takagi et al (Jap. J. Pharmacol., 18, 9 (1968)) was followed. SD male rats each weighing from 180 to 200 g (8 weeks of age and 6 to 8 rats in one group) were fasted for 24 hours, followed by oral administration of the above test compounds which had been suspended in 1% CMC aqueous solution. 15 minutes later, the animals were put into a stress cage which was then immersed in a water tank at 24° C. at the depth of the […] of the animals. After being immersed for 18 hours, the animals were killed under etherization to excise the stomachs. Each of the stomachs was injected with 12 ml of 1% formalin aqueous solution and then immersed in 1% formalin aqueous solution for 15 minutes. The stomach was incised along its upper curvature and measured by an anatomic microscopy for the major axis (mm) of each ulcer that had developed on the gastric mucous membrane. The total major axis (mm) was taken as the ulcer factor. The ulcer inhibition rate was obtained from the following equation. The ED50 values were obtained from the doses-ulcer inhibition rates curve. [formula] where l is the ulcer factor of a group without the test compounds administered, and m is the ulcer factor of a group having such compounds administered.

ethanol induced ulcer = experiment: Test Method 2: Effect on Ethanol Induced Ulcer; settings: Rattus norvegicus; SD male rats, oral, 30 minutes before oral ethanol (99.5%, 1 ml); stomachs removed one hour later
Protocol: 1. Test Procedures The method of Robert (Gastroenterology, 77, 433 (1979)) was followed. SD male rats each weighing from 180 to 200 g (8 weeks of age and 6 to 8 rats in one group) were fasted for 24 hours, followed by oral administration of the test compounds which had been suspended in 1% CMC aqueous solution. After lapse of 30 minutes, 1 ml of ethanol (99.5%) was orally administered. One hour later, the animals were killed under etherization to remove the stomachs. Each of the stomachs was injected with 12 ml of 1% formalin aqueous solution and then immersed in 1% formalin aqueous solution for 15 minutes. The ulcer factor and ulcer inhibition rate were determined in a manner similar to Test Method 1. The ED50 values were obtained from the doses-ulcer inhibition rates curve.

[1] = tested on: indomethacin induced ulcer; experiment: Test Method 3: Effect on Indomethacin Induced Ulcer; settings: Rattus norvegicus; SD male rats, oral, 15 minutes before s.c. indomethacin (30 mg/kg); stomachs removed after 5 hours
Protocol: The method of Okabe et al (Jap. J. Pharmacol., 29, 670 (1979)) was followed.
SD male rats each weighing from 180 to 200 g (8 weeks of age and 6 to 8 in one group) were fasted for 24 hours, followed by oral administration of the test compounds which had been suspended in 1% CMC aqueous solution, and 15 minutes afterwards, by subcutaneous administration of indomethacin (30 mg/kg of weight) which had been dissolved in 3% sodium bicarbonate aqueous solution. After lapse of 5 hours, the animals were killed under etherization to take out the stomachs. Each of the stomachs was injected with 12 ml of 1% formalin aqueous solution containing 0.1% pontamine sky blue and then immersed in 1% formalin aqueous solution for 15 minutes. The ulcer factor and ulcer inhibition rate were determined in a manner similar to Test Method 1. The ED50 values were obtained from the dosesulcer inhibition rates curve.

ddY male mice = experiment: Test Method 4: Acute Toxicity-Minimum Lethal Dose (MLD); settings: oral, observation over 7 days
Description: ddY Male mice each weighing from 20 to 22 g (4 weeks of age and 5 mice in one group) were fasted overnight, followed by oral administration of the test compounds which had been suspended in 1% CMC aqueous solution. Observation was made as to the death of the animals over 7 days to thereby determine the minimum lethal doses (MLD).

SMILES	ED50 (stress induced ulcer) [mg/kg]	ED50 (ethanol induced ulcer) [mg/kg]	ED50 [1] [mg/kg]	MLD, acute toxicity test (minimum lethal dose) (ddY male mice) [mg/kg]
N=C(N)NCc1ccc(C(=O)Nc2ccccc2)cc1 [Compound A, N-phenyl-4-guanidinomethylbenzamide]	34	35	58	> 3000
Cl.N=C(N)NC[C@H]1CC[C@H](C(=O)Nc2ccccc2)CC1 [Compound B, N-(phenyl)-trans-4-guanidinomethylcyclohexanecarboxamide hydrochloride]	143	220	73	< 1000
